This note sets out measurements from PMC2767256 (Biochemical pharmacology, 2009).

As a reminder, the IC50 is the concentration at which inhibition is half-maximal.

Each structure is given as a SMILES string.

Assay type in all cases: biochemical
One assay has as its target SULT1A3 (Homo sapiens, UniProt P0DMM9). As to the kind of experiment: inhibition of dopamine sulfation with […]PAPS in BeWo cytosol.
The next assay addresses SULT1A1 (Homo sapiens, UniProt P50225). Kind of assay: inhibition of 4-nitrophenol sulfation with […]PAPS in BeWo cytosol.
The next assay concerns the target T1, SULT2A1 (Homo sapiens, UniProt Q06520).
T1 sequence (Q06520 1-285): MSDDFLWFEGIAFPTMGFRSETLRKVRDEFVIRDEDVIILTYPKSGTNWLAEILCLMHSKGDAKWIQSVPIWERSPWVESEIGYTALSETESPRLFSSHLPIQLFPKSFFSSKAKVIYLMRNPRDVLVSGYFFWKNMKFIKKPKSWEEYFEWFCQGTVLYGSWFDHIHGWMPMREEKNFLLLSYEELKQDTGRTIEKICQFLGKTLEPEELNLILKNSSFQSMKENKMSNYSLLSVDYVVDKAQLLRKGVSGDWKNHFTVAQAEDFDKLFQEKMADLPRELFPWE
As to the kind of experiment: sulfation of [3H]DHEA.

SULT1A1, sequence (P50225 whole entry): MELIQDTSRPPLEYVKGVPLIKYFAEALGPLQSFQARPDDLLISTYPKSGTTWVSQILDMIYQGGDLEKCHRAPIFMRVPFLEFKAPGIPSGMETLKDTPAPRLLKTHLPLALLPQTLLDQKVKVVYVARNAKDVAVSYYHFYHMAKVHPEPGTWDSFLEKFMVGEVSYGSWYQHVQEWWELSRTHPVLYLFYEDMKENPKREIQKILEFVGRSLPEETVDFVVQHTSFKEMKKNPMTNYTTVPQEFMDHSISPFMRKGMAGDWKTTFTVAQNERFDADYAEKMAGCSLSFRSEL
SULT1A3, sequence (P0DMM9 whole entry): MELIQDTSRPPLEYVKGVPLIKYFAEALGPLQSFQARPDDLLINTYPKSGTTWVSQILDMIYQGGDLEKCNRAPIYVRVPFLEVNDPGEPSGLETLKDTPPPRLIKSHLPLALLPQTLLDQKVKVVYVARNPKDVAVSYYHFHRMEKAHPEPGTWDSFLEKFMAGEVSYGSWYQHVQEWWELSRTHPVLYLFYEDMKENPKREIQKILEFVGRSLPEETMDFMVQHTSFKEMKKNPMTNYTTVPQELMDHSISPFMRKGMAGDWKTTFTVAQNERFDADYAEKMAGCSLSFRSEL

As for `O=[N+]([O-])c1cc(Cl)c(O)c(Cl)c1` [DCNP, 2,6-dichloro-4-nitrophenol], the results for the IC50 against SULT1A3 and at SULT1A1 were 830 µM and 0.052 µM, respectively.
As to `C[C@]12CC[C@H](O)CC1=CC[C@@H]1[C@@H]2CC[C@]2(C)C(=O)CC[C@@H]12` [DHEA, dehydroepiandrosterone], the “sulfation of [3H]DHEA (3 and 10 μM) by purified SULT2A1” value on SULT2A1 is reported as “Under the same assay conditions, purified SULT2A1 readily sulfated DHEA”.
